Consider two compounds from patent US11400101B2, “Treatment of allergic rhinitis using a combination of mometasone and olopatadine” (GLENMARK SPECIALTY S.A., priority 2013, dated 2022).

In data set [1] the test system is seasonal allergic rhinitis (SAR). Briefly: Phase III clinical study in SAR, fall and mountain cedar season, Example 6. The conditions noted are these: human, in vivo. From the text: A total of 1,176 randomized subjects (˜294 subjects per treatment arm) were enrolled in the study.
Subjects were randomized to treatment in a 1:1:1:1 ratio to the following four treatment arms, at multiple study sites.
(§1) This study consisted of four visits to the study site. After the initial screening visit (Visit 1), subjects who met all study selection criteria were required to undergo a single-blind placebo run-in period for 7-10 days. Following the completion of the run-in period, eligible subjects meeting the randomization criteria were enrolled and randomized to one of the four treatment arms. Subjects were dispensed medication as per the randomization list. Randomized subjects were required to undergo a 2 week (14 days) treatment period as per the protocol to assess the efficacy and safety of the assigned treatment. Subjects were instructed to record the symptom scores in a symptom assessment diary.
• Change from baseline in average AM and PM subject-reported 12-hour rTNSS (reflective TNSS) over the 14-day treatment period. […] The non-nasal symptoms are assessed in a similar manner to the ocular symptoms above. […]

Data set [2] in a line: Crystallization of olopatadine hydrochloride in the fixed dose combination aqueous suspension versus pH. Format: physicochemical.
The test system of a further data set is sneezing response. Briefly: Sneezing response in ovalbumin induced rhinitis model (whole body plethysmography). The format is in vivo, guinea pigs. The conditions noted are these: for Inhibition of sneezing response (in words) / Number of Sneeze (0-50 min): MF 10 μg; for Percent inhibition of sneeze: MF 10 μg per animal, vs ovalbumin control; for Number of Sneeze (0-50 min): intranasal, ovalbumin challenged. Here is the method:
Male Dunkin Hartley guinea pigs were actively sensitized with a subcutaneous injection of 1.5 mg of ovalbumin and 20 mg of aluminum hydroxide gel on days 0 and 7. Guinea pigs were sensitized intranasally with 2% ovalbumin from days 14-17. On day 28, the animals were challenged with 6% ovalbumin intranasally. Mometasone furoate 10 μg was given intranasally 24 hours and 1 hour prior to the final ovalbumin challenge. Olopatadine hydrochloride was given intranasally 1 hour before the final ovalbumin challenge. The dosing volume was 40 μl/animal. The saline control group and ovalbumin control group received vehicle (40 μl, 0.1% Tween 80 in distilled water). Sneezing response was determined by using whole body plethysmography (Buxco Research Systems, USA) for 50 minutes after final saline or ovalbumin challenge. The procedure in Example 1 was repeated except 120 μg of olopatadine hydrochloride (based on the equivalent weight of olopatadine free base) was used. The animal groups in Table 3 below were used during this experiment. Compound administration was performed as in Example 1, except the dosing volume was 60 μl/animal. The saline control group and ovalbumin control group received vehicle (60 μl, 0.1% Tween 80 in distilled water). In vivo evaluations were performed as in Example 1.

The nature of data set [3]: Plasma pharmacokinetics of TP-1 in the Phase III study, day 1 and day 8 (steady state). Format: in vivo, human. The settings on record: human, in vivo.
Source text: as §1, with “diary. They were also scheduled to have at least two blood samples for PK assessment during the treatment period.” for “diary.”
• Change from baseline in average AM and PM subject-reported 12-hour rTNSS (reflective TNSS) over the 14-day treatment period. Secondary Endpoints • Change from baseline in average AM and PM subject-reported 12-hour iTNSS (instantaneous TNSS) over the 14 day treatment period. • Change from baseline in average AM and PM subject-reported 12-hour rTOSS (reflective TOSS) over the 14-day treatment period. • Onset of action for each treatment are assessed by comparing the change from baseline in post-treatment iTNSS between each active treatment and placebo at defined time points (prior to first dose (pre-dose), 15 min, 30 min, 45 min, 60 min, 90 min, 120 min, 150 min, 180 min, 210 min, and 240 min) after the first study treatment for 4 hours. • Change from baseline in the overall Rhinoconjunctivitis Quality of Life questionnaire (RQLQ)—Standardized Activities (RQLQ(S)) score on Day 15 (Visit 4) for the Full Analysis Set (FAS). Pharmacokinetic Endpoints • Plasma PK: Maximum plasma concentration (Cmax), time to attain Cmax (Tmax), and area under the plasma concentration-time curve over the dosing interval (AUCtau) will be estimated for mometasone furoate and olopatadine on Day 1 and Day 8 based on the pharmacokinetic analysis set (PKAS). Tertiary Efficacy Endpoints Nasal Symptoms: • Change from baseline in AM subject-reported rTNSS over the 14-day treatment period. • Change from baseline in AM subject-reported iTNSS over the 14-day treatment period. • Change from baseline in PM subject-reported rTNSS over the 14-day treatment period. • Change from baseline in PM subject-reported iTNSS over the 14-day treatment period. • Change from baseline in subject-reported reflective individual nasal symptoms over the 14-day treatment period (AM, PM and average of AM and PM). • Change from baseline in subject-reported instantaneous individual nasal symptoms over the 14-day treatment period (AM, PM and average of AM and PM). • Change from baseline in average AM and PM subject-reported rTNSS and iTNSS for each day. • Change from baseline in AM subject-reported rTNSS and iTNSS for each day. • Change from baseline in PM subject-reported rTNSS and iTNSS for each day. […]

The nature of data set [4]: Pharmacokinetics of olopatadine, single-dose three-period cross-over study, Example 12. Format: in vivo, human. The conditions noted are these: single dose nasal spray. The procedure:
The pharmacokinetics of olopatadine in a fixed dose combination of mometasone furoate and olopatadine hydrochloride nasal spray was evaluated in a clinical trial. The clinical trial was a randomized, single-center, single-dose, open-label, three-period, six-sequence, cross-over study to evaluate three treatments administered as a nasal spray. The three treatments included a combination of mometasone furoate and olopatadine hydrochloride nasal spray, olopatadine hydrochloride nasal spray and […]® nasal spray. […] The study consisted of a screening visit, 3 single-dose treatment periods with washout periods of 7 to 14 days between dosing in each treatment period, an early withdrawal visit if applicable, and a follow-up telephone call (or visit) 1 to 7 days after completing the third treatment period. A total of 30 subjects were randomized to 1 of 6 treatment sequences and received at least 1 dose of study drug. All 30 subjects were included in the safety analysis set and the pharmacokinetic subset. All but 2 subjects completed the study per protocol.

The subject of data set [5] is total cells and eosinophils in nasal lavage. Briefly: Nasal lavage total cell count and eosinophils in ovalbumin induced rhinitis model. The conditions noted are these: for Inhibition of total cell and eosinophils in nasal lavage (in words): MF 10 μg; for % inhibition of eosinophils / Percent inhibition of total cell count / Eosinophils × 10^5/ml nasal lavage / Total cell count × 10^5/ml nasal lavage: MF 10 μg per animal. The format is in vivo, guinea pigs. The procedure: Male Dunkin Hartley guinea pigs were actively sensitized with a subcutaneous injection of 1.5 mg of ovalbumin and 20 mg of aluminum hydroxide gel on days 0 and 7. Guinea pigs were sensitized intranasally with 2% ovalbumin from days 14-17. On day 28, the animals were challenged with 6% ovalbumin intranasally. Mometasone furoate 10 μg was given intranasally 24 hours and 1 hour prior to the final ovalbumin challenge. Olopatadine hydrochloride was given intranasally 1 hour before the final ovalbumin challenge. The dosing volume was 40 μl/animal. The saline control group and ovalbumin control group received vehicle (40 μl, 0.1% Tween 80 in distilled water). Nasal lavage was performed at 4 hours after challenge of animals with saline or ovalbumin on day 28. Animals were anesthetized with an overdose of urethane, the trachea was exposed and nasal lavage was performed using 2 mL pre-warmed normal saline. The collected nasal lavage was taken for total cell count using a hemocytometer. The nasal lavage was centrifuged, and the cell pellet resuspended in 15 μL guinea pig serum and used for preparation of smears. Slides were stained with Leishman's stain and a differential cell count of 100 cells based on standard morphology was performed manually. The total number of eosinophils in each nasal lavage sample was calculated using the formula: [formula] Percent inhibition of eosinophils was calculated using the following formula: The procedure in Example 1 was repeated except 120 μg of olopatadine hydrochloride (based on the equivalent weight of olopatadine free base) was used. The animal groups in Table 3 below were used during this experiment. Compound administration was performed as in Example 1, except the dosing volume was 60 μl/animal. The saline control group and ovalbumin control group received vehicle (60 μl, 0.1% Tween 80 in distilled water). In vivo evaluations were performed as in Example 1.

[6] abbreviates: Example 1, OH 50 μg, 4 hours after challenge.

“Mometasone Furoate Monohydrate and Olopatadine Hydrochloride Nasal Spray (25 mcg+600 mcg) [TP-1]”: in data set [1], the “Urinary tract infection reported as adverse event” value was found to be 1%.

Take `CN(C)CC/C=C1/c2ccccc2COc2ccc(CC(=O)O)cc21.Cl` [Olopatadine Hydrochloride, (Z)-11-[3-(dimethylamino)propylidene]-6,11-dihydrodibenz[b,e]oxepin-2-acetic acid hydrochloride]: the “State of olopatadine hydrochloride in the fixed dose combination aqueous suspension” value in data set [2] (pH of 5 to 5.5) is “crystallizes out”. Further, the “State of olopatadine hydrochloride in the aqueous suspension” value in data set [2] (pH of about 3.3 to about 4.1) is “remains dissolved”. In the data set with sneezing response (Example 1, OH 50 μg), the “Inhibition of sneezing response (in words)” value was “did not show significant inhibition” and the “Percent inhibition of sneeze” value turned out to be 45%. For the same compound, in the data set with sneezing response (Example 1, per animal: OH 50 μg, combination 50 (OH) & 10 (MF)), the “Number of Sneeze (0-50 min)” value is on record as 12.29. Further, in the data set on sneezing response (Example 2, OH 120 μg), the “Inhibition of sneezing response (in words)” value is listed as “did not show significant inhibition” and the “Percent inhibition of sneeze” value was determined as 51%. Also, the “Number of Sneeze (0-50 min)” value in the data set with sneezing response (Example 2, per animal: OH 120 μg, combination 120 (OH) & 10 (MF)) turned out to be 17.90. The “Olopatadine Tmax, Median” value in data set [3] was 1.00 h. Also, the “Last time point until which quantifiable concentrations were observed” value in data set [4] is 48 h. In data set [5] (Example 1, OH 50 μg), the “Inhibition of total cell and eosinophils in nasal lavage (in words)” value is recorded as “did not show significant inhibition”; the “% inhibition of eosinophils” value is given as 2%; the “Percent inhibition of total cell count” value is 3%. Also, in data set [5] (setting [6]), the “Eosinophils × 10^5/ml nasal lavage” value is given as 3.64 × 10^5/ml and the “Total cell count × 10^5/ml nasal lavage” value is given as 6.63 × 10^5/ml. In data set [5] (Example 2, OH 120 μg), the “Inhibition of total cell and eosinophils in nasal lavage (in words)” value is on record as “did not show significant inhibition”; the “% inhibition of eosinophils” value is 8%; the “Eosinophils × 10^5/ml nasal lavage” value was 3.08 × 10^5/ml; the “Percent inhibition of total cell count” value was 17%. Besides, the “Total cell count × 10^5/ml nasal lavage” value in data set [5] (Example 2, OH 120 μg) is on record as 5.83 × 10^5/ml.
